Experimental data reported in patent US10118916B2, “Modulators of cystic fibrosis transmembrane conductance regulator protein” (AbbVie S.à.r.l., priority 2016, dated 2018).

Key:
F508del/F508del CFTR = molecular target: T1, F508del/F508del CFTR (Homo sapiens, UniProt P13569, DEL508-508); test: Transepithelial Clamp Circuit (TECC-24) conductance assay on primary human bronchial epithelial cells (hBE-TECC); format: cell-based; details: for EC50: equivalent short circuit current, 18-24 hours at 37° C., with control potentiator; for Maximum % activity: relative to positive control (3 μM) coupled with control potentiator
T1 construct: cells isolated from CF patients with the homozygous mutation; endogenous in cells; host or cells: primary human bronchial epithelial (hBE) cells from F508del/F508del CF patients
T1 sequence (P13569 with tags, fused parts or gaps DEL508-508): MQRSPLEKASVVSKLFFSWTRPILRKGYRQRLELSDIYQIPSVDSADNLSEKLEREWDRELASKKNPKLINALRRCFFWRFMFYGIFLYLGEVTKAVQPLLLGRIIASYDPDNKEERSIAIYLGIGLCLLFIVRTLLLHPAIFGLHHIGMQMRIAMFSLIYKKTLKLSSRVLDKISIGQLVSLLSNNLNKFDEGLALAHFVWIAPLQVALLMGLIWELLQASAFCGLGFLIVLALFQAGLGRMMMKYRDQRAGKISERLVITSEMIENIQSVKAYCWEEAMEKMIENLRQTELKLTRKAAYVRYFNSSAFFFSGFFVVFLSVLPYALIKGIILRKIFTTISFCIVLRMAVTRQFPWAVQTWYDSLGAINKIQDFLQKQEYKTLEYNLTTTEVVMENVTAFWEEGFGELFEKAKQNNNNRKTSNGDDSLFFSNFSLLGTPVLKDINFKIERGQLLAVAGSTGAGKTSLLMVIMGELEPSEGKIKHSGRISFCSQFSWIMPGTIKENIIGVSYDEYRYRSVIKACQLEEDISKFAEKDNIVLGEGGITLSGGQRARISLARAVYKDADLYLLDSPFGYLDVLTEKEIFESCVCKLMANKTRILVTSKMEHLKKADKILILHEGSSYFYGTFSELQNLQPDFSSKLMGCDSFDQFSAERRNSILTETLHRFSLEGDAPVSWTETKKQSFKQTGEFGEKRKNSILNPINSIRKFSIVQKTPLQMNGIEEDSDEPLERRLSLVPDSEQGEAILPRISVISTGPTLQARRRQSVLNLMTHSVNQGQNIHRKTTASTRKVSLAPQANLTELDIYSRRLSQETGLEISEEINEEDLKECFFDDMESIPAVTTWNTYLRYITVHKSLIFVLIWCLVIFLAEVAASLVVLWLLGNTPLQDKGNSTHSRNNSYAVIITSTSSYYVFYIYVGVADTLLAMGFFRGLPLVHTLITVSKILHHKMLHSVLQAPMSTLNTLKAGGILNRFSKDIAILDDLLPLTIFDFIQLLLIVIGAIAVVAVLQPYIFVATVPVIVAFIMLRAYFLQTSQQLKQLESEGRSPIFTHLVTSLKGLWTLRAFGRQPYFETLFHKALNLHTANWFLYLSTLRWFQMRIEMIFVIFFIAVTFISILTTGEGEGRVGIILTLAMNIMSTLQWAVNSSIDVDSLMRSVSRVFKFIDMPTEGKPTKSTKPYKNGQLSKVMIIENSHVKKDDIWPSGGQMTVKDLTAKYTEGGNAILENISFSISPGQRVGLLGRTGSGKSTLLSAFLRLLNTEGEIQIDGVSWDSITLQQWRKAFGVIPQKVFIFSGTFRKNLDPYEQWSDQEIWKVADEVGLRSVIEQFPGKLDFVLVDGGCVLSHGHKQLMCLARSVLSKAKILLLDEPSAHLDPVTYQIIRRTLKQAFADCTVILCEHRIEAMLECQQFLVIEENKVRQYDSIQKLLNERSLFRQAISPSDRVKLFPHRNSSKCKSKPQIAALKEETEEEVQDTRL
From the text: Transepithelial Clamp Circuit on Human Bronchial Epithelial Cells Conductance Assay:
A cell based assay using the primary human bronchial epithelial cells (hBE) was used as a secondary assay to test novel F508delCFTR correctors for their activity on primary hBE cells with F508del/F508del CFTR mutation. The assay used a TECC-24 (Transepithelial Clamp Circuit for 24 wells) instrument that measures the functionality of the mutated channel by measuring the equivalent short circuit current (Ieq) generated by the polarized epithelial cells. The instrument works by measuring the transepithelial potential difference (Vt) and transepithelial resistance (Rt) in an open circuit format, and the Ieq is calculated by using Ohms law (Ieq=Vt/Rt). The assay was run in a 24-well format and all 24-wells were measured at the same time point giving a higher throughput for this assay.
Primary human bronchial epithelial (hBE) cells from F508del/F508delCFTR patients were expanded from 1×10^6 to 250×10^6 cells (Neuberger T, Burton B, Clark H and VanGoor F; Cystic Fibrosis, Methods in Mole Biol 741; eds. Amaral M D and Kunzelmann K, 2011). For this purpose, cells isolated from CF patients with the homozygous mutation were seeded onto 24 well Corning (Cat #3378) filter plates that were coated with 3T3 conditioned media and grown at an air-liquid interface for 35 days using an Ultroser® G supplemented differentiation media. Apical surface mucus was removed 72 hours before the experiment using 3 mM dithiothreitol (DTT) in phosphate buffered saline (PBS). The apical surface was washed again 24 hours before the experiment using PBS. The cells were incubated with the desired dose response of the corrector compounds 18-24 hours at 37° C., 5% CO2. The corrector compounds are only added on the basolateral side of the epithelial cells.
On the day of measuring the corrector activity on the TECC, the cells were switched into a bicarbonate and serum free F-12 Coon's medium and allowed to equilibrate for 30 minutes in a CO2 free incubator. At the time of measurement, the apical and basolateral sides of the filter were bathed with the F-12 Coon's modification media (with 20 mM 4-(2-hydroxyethyl)-1-piperazineethanesulfonic acid (HEPES), pH 7.4 (using 1 M tris(hydroxymethyl)aminomethane (Tris)), and the measurements were made at 36.5° C. Transepithelial voltage (Vt) and transepithelial resistance (Rt) were measured using a 24 channel transepithelial current clamp (TECC-24). Current responses to the sequential addition of benzamil (apical 6 μM addition; for inhibiting epithelial ENaC channel), forskolin (apical and basolateral 10 μM addition; for activating the CFTR channel), control potentiator (N-(3-carbamoyl-5,5,7,7-tetramethyl-4,7-dihydro-5H-thieno[2,3-c]pyran-2-yl)-1H-pyrazole-5-carboxamide; apical and basolateral 1 μM addition; for potentiating the CFTR channel) and bumetanide (basolateral 20 μM addition; for inhibiting the Na:2Cl:K co-transporter, an indirect measure of inhibiting the Cl— secretion driven by CFTR channel) were measured.
All plates contained negative controls (dimethyl sulfoxide, DMSO) which coupled with the control potentiator (N-(3-carbamoyl-5,5,7,7-tetramethyl-4,7-dihydro-5H-thieno[2,3-c]pyran-2-yl)-1H-pyrazole-5-carboxamide) sets the null response and positive controls (3 μM of 3-[(2R,4R)-4-({[1-(2,2-difluoro-1,3-benzodioxol-5-yl)cyclopropyl]carbonyl}amino)-7-methoxy-3,4-dihydro-2H-chromen-2-yl]benzoic acid) coupled with the control potentiator sets the 100% response to measure the correction of the mutated CFTR channel. The maximum percent activity is reported relative to the positive control value.
The % activity measured at each of the 6 test concentrations of the test compound was normalized to the on-plate positive control using the following formula: % activity=[(test compound response−DMSO response)/(positive control response−DMSO response)]*100 […]

F508delCFTR = molecular target: T2, F508delCFTR (Homo sapiens, UniProt P13569, DEL508-508); test: Cell Surface Expression-Horse Radish Peroxidase (CSE-HRP) assay; format: cell-based; details: CFBE41o-F508delCFTR-HRP cells; for EC50: F508delCFTR cell surface expression, luminescence, 18-24 hours at 33° C., highest concentration 20 μM; for Maximum % activity: maximum at any tested concentration, normalized to on-plate positive control (3 μM)
T2 construct: expressed in transfected cells; host or cells: CFBE41o- (human lung derived epithelial cell line), doxycycline-inducible
T2 sequence (P13569 with tags, fused parts or gaps DEL508-508): as above
Procedure, shortened: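 CFBE41o- cells expressing doxycycline-induced (0.5 μg/mL, 72 h at 37 °C) F508delCFTR with HRP in the fourth extracellular loop; compounds 8 points, 3-fold from 20 μM, 18-24 h at 33 °C. Surface HRP measured by luminol luminescence, normalised to DMSO and 3 μM reference corrector; EC50 from variable-slope sigmoidal fit of triplicate plates.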

EC50 (F508del/F508del CFTR) [nM]	Maximum % activity (F508del/F508del CFTR) [%]	EC50 (F508delCFTR) [nM]	Maximum % activity (F508delCFTR) [%]	Structure (SMILES)
24	85.6	100	91.3	COc1ccc2c(c1)O[C@@H](c1cccc(C(=O)O)c1)C[C@H]2NC(=O)[C@@]1(C)CCc2cc(C)ccc21 (single isomer, unassigned) [Example 8]
21	104.3	310	124.5	COc1ccc2c(c1)O[C@@H]([C@H]1CC[C@H](C(=O)O)CC1)C[C@H]2NC(=O)C1(c2ccc3c(c2)OC(F)(F)O3)CC1 [Example 11, trans-4-[(2R,4R)-4-{[1-(2,2-difluoro-2H-1,3-benzodioxol-5-yl)cyclopropane-1-carbonyl]amino}-7-methoxy-3,4-dihydro-2H-1-benzopyran-2-yl]cyclohexane-1-carboxylic acid]
4	117.5	30	124.0	O=C(N[C@@H]1C[C@H]([C@H]2CC[C@H](C(=O)O)CC2)Oc2cc(OC(F)(F)F)ccc21)C1(c2ccc3c(c2)OC(F)(F)O3)CC1 [Example 13, trans-4-[(2R,4R)-4-{[1-(2,2-difluoro-2H-1,3-benzodioxol-5-yl)cyclopropane-1-carbonyl]amino}-7-(trifluoromethoxy)-3,4-dihydro-2H-1-benzopyran-2-yl]cyclohexane-1-carboxylic acid]
573	92.0	530	94.7	O=C(N[C@@H]1C[C@H]([C@H]2CC[C@@H](C(=O)O)CC2)Oc2cc(OC(F)F)ccc21)C1(c2ccc3c(c2)OC(F)(F)O3)CC1 [Example 15A, cis-4-[(2R,4R)-4-{[1-(2,2-difluoro-2H-1,3-benzodioxol-5-yl)cyclopropane-1-carbonyl]amino}-7-(difluoromethoxy)-3,4-dihydro-2H-1-benzopyran-2-yl]cyclohexane-1-carboxylic acid]
30	109.6	110	125.5	O=C(N[C@@H]1C[C@H]([C@H]2CC[C@H](C(=O)O)CC2)Oc2cc(OC(F)F)ccc21)C1(c2ccc3c(c2)OC(F)(F)O3)CC1 [Example 15B, trans-4-[(2R,4R)-4-{[1-(2,2-difluoro-2H-1,3-benzodioxol-5-yl)cyclopropane-1-carbonyl]amino}-7-(difluoromethoxy)-3,4-dihydro-2H-1-benzopyran-2-yl]cyclohexane-1-carboxylic acid]
		350	47.0	COc1ccc(C(C)(C)C(=O)N[C@@H]2C[C@H](c3ccc(C(=O)O)cc3)Oc3cc(OC)ccc32)c(F)c1 [Example 117, 4-{(2R,4R)-4-[2-(2-fluoro-4-methoxyphenyl)-2-methylpropanamido]-7-methoxy-3,4-dihydro-2H-1-benzopyran-2-yl}benzoic acid]
		> 20000	16.3	COc1ccc2c(c1)O[C@@H](c1ccc(C(=O)O)cc1)C[C@H]2NC(=O)C(C)(C)Oc1ccc(F)cc1 [Example 118, 4-{(2R,4R)-4-[2-(4-fluorophenoxy)-2-methylpropanamido]-7-methoxy-3,4-dihydro-2H-1-benzopyran-2-yl}benzoic acid]
		2980	27.4	COc1ccc2c(c1)O[C@@H](c1ccc(C(=O)O)cc1)C[C@H]2NC(=O)C(C)(C)Oc1ccc(Cl)cc1 [Example 119, 4-{(2R,4R)-4-[2-(4-chlorophenoxy)-2-methylpropanamido]-7-methoxy-3,4-dihydro-2H-1-benzopyran-2-yl}benzoic acid]
		50	73.9	COc1ccc2c(c1)O[C@@H](c1ccc(C(=O)O)cc1)C[C@H]2NC(=O)C(C)(C)c1ccc2c(c1)OCO2 [Example 120, 4-{(2R,4R)-4-[2-(2H-1,3-benzodioxol-5-yl)-2-methylpropanamido]-7-methoxy-3,4-dihydro-2H-1-benzopyran-2-yl}benzoic acid]
		70	49.6	COc1ccc(C(C)(C)C(=O)N[C@@H]2C[C@H](c3ccc(C(=O)O)cc3)Oc3cc(OC)ccc32)cc1 [Example 121, 4-{(2R,4R)-7-methoxy-4-[2-(4-methoxyphenyl)-2-methylpropanamido]-3,4-dihydro-2H-1-benzopyran-2-yl}benzoic acid]
		310	86.2	COc1ccc2c(c1)O[C@@H](c1cccc(C(=O)O)c1)C[C@H]2NC(=O)C1(C)CCc2cc(C)ccc21 (stereo partly drawn) [Example 122, 3-{(2R,4R)-4-[(1,5-dimethyl-2,3-dihydro-1H-indene-1-carbonyl)amino]-7-methoxy-3,4-dihydro-2H-1-benzopyran-2-yl}benzoic acid]
		460	87.7	COC(=O)c1ccc([C@H]2C[C@@H](NC(=O)C3(C)CCc4cc(C)ccc43)c3ccc(OC)cc3O2)cc1 (stereo partly drawn) [Example 124, methyl 4-{(2R,4R)-4-[(1,5-dimethyl-2,3-dihydro-1H-indene-1-carbonyl)amino]-7-methoxy-3,4-dihydro-2H-1-benzopyran-2-yl}benzoate]
